Reference: paper PMC7721803, “Development of a penem antibiotic against Mycobacteroides abscessus” (Communications Biology, 2020)
≈ marks a conversion by molar mass, not a printed value. Like-named read-outs stand apart in the source and are kept apart here.

Key:
[1] = cited from earlier work
[2] = system: M. abscessus; assay: MIC by broth dilution method (Middlebrook 7H9); type: cell-based, Mycobacteroides abscessus; conditions: for MIC50 / MIC90: clinical M. abscessus strains of Table 1; for MIC50: read-out: MIC50; for MIC90: read-out: MIC90
[3] = system: M. abscessus ATCC 19977; type: cell-based, Mycobacteroides abscessus; conditions: drug alone at its individual MIC (T405 2 µg/mL, imipenem 8 µg/mL)
[4] = in vivo; design: species or system BALB/c mice; conditions: female, BALB/c, mouse, 25 mg/kg, T405 concentration in blood
Protocol: All procedures involving mice were approved by the Animal Care and Use Committee of Johns Hopkins University. […] Blood was sampled from three mice per group per time point by mandibular vein puncture or cardiac puncture at the following time points: 5, 15, 30, 60, 120, and 240 min post-dose. Plasma was separated in heparin-containing tubes and frozen. […] Concentration–time data were analyzed by standard non-compartmental and compartmental techniques using WinNonlin (version 7.0; Pharsight, Mountain View, CA). A one-compartmental model was used to perform simulations to predict the plasma concentration–time profile after subcutaneous doses of 150, 300, and 450 mg/kg, alone and in combination with probenecid. A plasma free drug fraction of 2% of the total drug concentration was included in the simulations.

[5] = Mycobacteroides abscessus, ATCC19977, reference strain ATCC 19977, read-out: MIC
[6] = Mycobacteroides abscessus, clinical isolate 1N, read-out: MIC
[7] = Mycobacteroides abscessus, clinical isolate 2N, read-out: MIC
[8] = Mycobacteroides abscessus, clinical isolate 3N, read-out: MIC
[9] = Mycobacteroides abscessus, clinical isolate 4N, read-out: MIC
[10] = Mycobacteroides abscessus, clinical isolate 5N, read-out: MIC
[11] = Mycobacteroides abscessus, clinical isolate 8N, read-out: MIC
[12] = Mycobacteroides abscessus, clinical isolate 11N, read-out: MIC
[13] = Mycobacteroides abscessus, clinical isolate 13N, read-out: MIC
[14] = Mycobacteroides abscessus, clinical isolate 14N, read-out: MIC
[15] = Mycobacteroides abscessus, clinical isolate 202, read-out: MIC
[16] = Mycobacteroides abscessus, clinical isolate 203, read-out: MIC
[17] = Mycobacteroides abscessus, clinical isolate 204, read-out: MIC
[18] = Mycobacteroides abscessus, clinical isolate 214, read-out: MIC
[19] = Mycobacteroides abscessus, clinical isolate 215, read-out: MIC
[20] = Mycobacteroides abscessus, clinical isolate JH1801, read-out: MIC
[21] = Mycobacteroides abscessus, clinical isolate JH1802, read-out: MIC
[22] = Mycobacteroides abscessus, clinical isolate JHH2, read-out: MIC
[23] = Mycobacteroides abscessus, clinical isolate JHH4, read-out: MIC
[24] = Mycobacteroides abscessus, clinical isolate JHH9, read-out: MIC
[25] = Mycobacteroides abscessus, clinical isolate JHHKB, read-out: MIC

| Compound | MIC [2, 5] [µg/mL] | MIC [2, 6] [µg/mL] | MIC [2, 7] [µg/mL] | MIC [2, 8] [µg/mL] | MIC [2, 9] [µg/mL] | MIC [2, 10] [µg/mL] | MIC [2, 11] [µg/mL] | MIC [2, 12] [µg/mL] | MIC [2, 13] [µg/mL] | MIC [2, 14] [µg/mL] | MIC [2, 15] [µg/mL] | MIC [2, 16] [µg/mL] | MIC [2, 17] [µg/mL] | MIC [2, 18] [µg/mL] | MIC [2, 19] [µg/mL] | MIC [2, 20] [µg/mL] | MIC [2, 21] [µg/mL] | MIC [2, 22] [µg/mL] | MIC [2, 23] [µg/mL] | MIC [2, 24] [µg/mL] | also measured |
| --- | --- | --- | --- | --- | --- | --- | --- | --- | --- | --- | --- | --- | --- | --- | --- | --- | --- | --- | --- | --- | --- |
| C[C@@H](O)[C@H]1C(=O)N2C(C(=O)O)=C([C@H]3CCCO3)S[C@H]12 [Faropenem] | 512 (≈ 1790 µM) | 256 (≈ 897 µM) | 256 (≈ 897 µM) | 256 (≈ 897 µM) | 256 (≈ 897 µM) | 512 (≈ 1790 µM) | 512 (≈ 1790 µM) | 512 (≈ 1790 µM) | 64 (≈ 224 µM) | 512 (≈ 1790 µM) | 512 (≈ 1790 µM) | 128 (≈ 449 µM) | 512 (≈ 1790 µM) | 128 (≈ 449 µM) | 512 (≈ 1790 µM) | 512 (≈ 1790 µM) | 256 (≈ 897 µM) | 512 (≈ 1790 µM) | 512 (≈ 1790 µM) | 512 (≈ 1790 µM) | half-life in mice [1]: 11.4 min; MIC [2, 25]: 512 µg/mL (≈ 1790 µM); MIC50 ([2]; Mycobacteroides abscessus): 512 µg/mL (≈ 1790 µM); MIC90 ([2]; Mycobacteroides abscessus): 512 µg/mL (≈ 1790 µM) |
| C[C@@H](O)[C@H]1C(=O)N2C(C(=O)O)=C(SCCN=CN)C[C@H]12 [Imipenem] | 8 (≈ 26.7 µM) | 8 (≈ 26.7 µM) | 8 (≈ 26.7 µM) | 8 (≈ 26.7 µM) | 16 (≈ 53.4 µM) | 16 (≈ 53.4 µM) | 32 (≈ 107 µM) | 32 (≈ 107 µM) | 8 (≈ 26.7 µM) | 32 (≈ 107 µM) | 16 (≈ 53.4 µM) | 32 (≈ 107 µM) | 32 (≈ 107 µM) | 8 (≈ 26.7 µM) | 16 (≈ 53.4 µM) | 16 (≈ 53.4 µM) | 16 (≈ 53.4 µM) | 32 (≈ 107 µM) | 16 (≈ 53.4 µM) | 16 (≈ 53.4 µM) | Resistance frequency [3]: 1.9 × 10^−7; MIC [2, 25]: 256 µg/mL (≈ 855 µM); MIC50 ([2]; Mycobacteroides abscessus): 16 µg/mL (≈ 53.4 µM); MIC90 ([2]; Mycobacteroides abscessus): 32 µg/mL (≈ 107 µM) |
| C[C@@H](O)[C@@H]1C(=O)N2C(C(=O)O)=C(SC3CN(C4=NCCS4)C3)S[C@@H]12 [T405] |  |  |  |  |  |  |  |  |  |  |  |  |  |  |  |  |  |  |  |  | concentration at 5 min [4]: 169 ng/mL; concentration at 0.25 h [4]: 157 ng/mL; concentration at 0.5 h [4]: 143 ng/mL; concentration at 1 h [4]: 65 ng/mL; concentration at 2 h [4]: 25.1 ng/mL |
| NC(=O)[C@@H]1CC[C@@H]2CN1C(=O)N2OS(=O)(=O)O [avibactam] |  |  |  |  |  |  |  |  |  |  |  |  |  |  |  |  |  |  |  |  | MIC ([2]; reference strain ATCC 19977): 256 µg/mL (≈ 965 µM) |
